From publication PMC6274214, “Antimicrobial Activity and Urease Inhibition of Schiff Bases Derived from Isoniazid and Fluorinated Benzaldehydes and of Their Copper(II) Complexes” (Molecules, 2016)

Molecular target: T1, jack bean urease (Canavalia ensiformis, UniProt P07374)
T1 construct: native jack bean urease
Test: phenol red pH-rise urease assay, […] nm, time from pH […] to […]
Type: biochemical

T1 sequence (P07374 whole entry): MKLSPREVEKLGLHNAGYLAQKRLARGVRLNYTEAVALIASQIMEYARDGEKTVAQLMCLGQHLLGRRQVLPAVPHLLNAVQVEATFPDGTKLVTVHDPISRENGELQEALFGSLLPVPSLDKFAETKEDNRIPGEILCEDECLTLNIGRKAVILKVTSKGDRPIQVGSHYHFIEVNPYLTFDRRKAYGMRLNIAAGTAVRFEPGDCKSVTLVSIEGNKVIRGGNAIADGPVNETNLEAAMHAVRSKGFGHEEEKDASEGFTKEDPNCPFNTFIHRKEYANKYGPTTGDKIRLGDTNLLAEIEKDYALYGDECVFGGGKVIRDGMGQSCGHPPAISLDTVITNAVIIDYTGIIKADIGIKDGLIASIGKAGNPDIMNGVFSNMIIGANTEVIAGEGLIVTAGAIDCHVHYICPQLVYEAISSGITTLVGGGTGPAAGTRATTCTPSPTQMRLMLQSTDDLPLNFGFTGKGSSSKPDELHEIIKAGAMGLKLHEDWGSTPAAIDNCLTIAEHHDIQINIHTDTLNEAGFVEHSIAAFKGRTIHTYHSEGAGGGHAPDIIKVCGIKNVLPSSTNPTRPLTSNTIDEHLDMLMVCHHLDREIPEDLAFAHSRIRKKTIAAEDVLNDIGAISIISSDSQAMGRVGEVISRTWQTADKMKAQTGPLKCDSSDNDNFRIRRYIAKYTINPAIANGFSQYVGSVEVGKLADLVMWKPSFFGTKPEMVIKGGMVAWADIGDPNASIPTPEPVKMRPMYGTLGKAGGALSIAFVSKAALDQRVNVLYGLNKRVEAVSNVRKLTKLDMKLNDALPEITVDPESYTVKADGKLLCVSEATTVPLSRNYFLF

| Structure (SMILES) | IC50 [µM] |
| --- | --- |
| CC(=O)NO [Acetohydroxamic acid, reference compound] | 185 ± 6.2 |
| O=C(NN=Cc1ccc(C(F)(F)F)cc1)c1ccncc1 [L1] | > 500 |
| O=C(NN=Cc1ccccc1C(F)(F)F)c1ccncc1 [L2, N-[[(2-trifluoromethyl)phenyl]methylidene]pyridine-4-carbohydrazide] | > 500 |
| O=C(NN=Cc1ccc(F)cc1)c1ccncc1 [L3, N-[(4-fluorophenyl)methylidene]pyridine-4-carbohydrazide monohydrate] | > 500 |
| O=C(NN=Cc1cc(F)ccc1O)c1ccncc1 [L4, N-[(5-fluoro-2-hydroxyphenyl)methylidene]pyridine-4-carbohydrazide] | > 500 |
| O=C(NN=Cc1cccc(F)c1O)c1ccncc1 [L5, N-[(3-fluoro-2-hydroxyphenyl)methylidene]pyridine-4-carbohydrazide] | > 500 |
| O=C(NN=Cc1ccccc1)c1ccncc1 [L6, N-(benzylidene)pyridine-4-carbohydrazide] | > 500 |
